Reference: patent publication US20230331715A1, “SPIRO[3.3]HEPTANE DERIVATIVES FOR THE TREATMENT AND PROPHYLAXIS OF HEPATITIS B VIRUS INFECTION” (priority 2020, published 2023)
Where two headings read alike, the source gives them in different places.

What was measured:
Format in all cases: cell-based
[1] = system: HBsAg; experiment: PHH HBV natural infection assay, HBsAg (alphalisa)
Procedure: (§1) Detailed procedures regarding primary human hepatocyte (PHH) HBV natural infection assay are described as below. One tube of frozen PHH (10 million cells) is thawed in 37° C. water bath and then transferred to 20 mL of PHH thawing medium (Sigma, InVitroGRO HT Medium, Cat. S03319) with gently mixing. The cells were then centrifuged at […] for 5 min, the supernatant was discarded and the tube was refilled with 25 mL of PHH plating medium (Sigma, InVitroGRO CP Medium, Cat. S03317). The tube was shaken very gently to re-suspend all cells, and then 50 µl of cells were transferred to each well 384-well collagen I coated plate with appropriate liquid handling equipment, e.g. Integra VIAFLO384 or Agilent Bravo. The cells were then cultured for 24 hours in a cell incubator. For HBV infection, after PHH attachment on the culture plate, the plating medium was removed and replenished with PHH culture medium containing HBV virus. The PHH culture medium was prepared with Dulbecco’s Modified Eagle Medium (DMEM)/F12 (1: 1 in volume ratio) containing 10% fetal bovine serum (Gibco, Cat. 10099141), 5 ng/mL human epidermal growth factor (Gibco, Cat.PHG0311L), 20 ng/mL dexamethasone (Sigma, Cat.D4902-100mg), 250 ng/mL human recombinant insulin (Gibco, Cat.41400045) and 100 U/mL penicillin. HBV virus at 200 genome equivalent (GE) per cell with 4% PEG8000 (Sigma, Cat.P1458) containing culture medium were added to the PHH culture medium for infection. The cells were then cultured for 24 hours in cell incubator. Then the cell culture supernatant was removed. The HBV-infected PHH were cultured with sandwich culture method with PHH culture medium containing 1% DMSO and 0.25 mg/mL matrix gel for 72 hours. The supernatant was then refreshed with PHH culture medium containing different concentrations of testing compounds for two times with 72-hour interval. At the end of treatment, the supernatant was collected for viral markers measurements, including HBsAg, HBeAg, HBV DNA and cytotoxicity. HBsAg and HBeAg were detected using alphalisa method using their specific antibodies. For HBV DNA detection, HBV DNA Quantitative Fluorescence Diagnostic Kit (Sansure Biotech Inc.) was used following the manufacture’s protocol. Cytotoxicity was determined using Cell Counting Kit-8 (CCK8, Dojindo Molecular Technologies, Inc.).
(§2) The compounds of the present invention were tested for their capacity to inhibit HBsAg and HBeAg as described herein.

[2] = system: HBeAg; experiment: PHH HBV natural infection assay, HBeAg (alphalisa)
Procedure: as §1, §2

[3] = Cytotoxicity in PHH natural infection assay (Cell Counting Kit-8); details: human; HBV-infected PHH, CCK8, compound refreshed two times with 72-hour interval
Procedure: as §1

[4] = Hepatitis B virus, 72 h, read-out: HBsAg IC50, HBV-infected PHH, culture supernatant, compound refreshed two times with 72-hour interval, alphalisa
[5] = Hepatitis B virus, 72 h, read-out: HBeAg IC50, HBV-infected PHH, culture supernatant, compound refreshed two times with 72-hour interval, alphalisa
[6] = read-out: HBsAg IC50, HBV-infected PHH, culture supernatant, compound refreshed two times with 72-hour interval, alphalisa
[7] = read-out: HBeAg IC50, HBV-infected PHH, culture supernatant, compound refreshed two times with 72-hour interval, alphalisa

CC(c1ccc(C(=O)NC2CC3(C2)CC(c2nc4cc(Cl)ccc4s2)C3)o1)S(C)(=O)=O (stereo not drawn) [Example 16, N-[6-(5-chloro-1,3-benzothiazol-2-yl)spiro[3.3]heptan-2-yl]-5-(1-methylsulfonylethyl)furan-2-carboxamide]
IC50 [1, 4]: 2.69 µM
IC50 [2, 5]: 1.92 µM
CC50 at 144 h [3]: 23.9 µM

O=C(CC1CS(=O)(=O)C1)NC1CC2(C1)CC(c1nc3cc(Cl)ccc3s1)C2 (stereo not drawn) [Example 28, N-[6-(5-chloro-1,3-benzothiazol-2-yl)spiro[3.3]heptan-2-yl]-2-(1,1-dioxothietan-3-yl)acetamide]
IC50 [1, 4]: 3.28 µM
IC50 [2, 5]: 1.66 µM
CC50 at 144 h [3]: > 10 µM

NC(=O)Nc1cc(C(=O)NC2CC3(C2)CC(c2nc4cc(Cl)ccc4s2)C3)ccn1 (stereo not drawn) [Example 10, N-[6-(5-chloro-1,3-benzothiazol-2-yl)spiro[3.3]heptan-2-yl]-2-ureido-pyridine-4-carboxamide]
IC50 [1, 4]: 7.7 µM
IC50 [2, 5]: 8.43 µM
CC50 at 144 h [3]: > 50 µM

O=C(NC1CC2(C1)CC(c1nc3cc(Cl)ccc3s1)C2)C1CCS(=O)(=O)N1 (stereo not drawn) [Example 34, N-[6-(5-chloro-1,3-benzothiazol-2-yl)spiro[3.3]heptan-2-yl]-1,1-dioxo-1,2-thiazolidine-3-carboxamide]
IC50 [1, 4]: 7.11 µM
IC50 [2, 5]: 5.67 µM
CC50 at 144 h [3]: > 10 µM

[H][C@]1(NC(=O)c2ccnc(S(=O)(=O)C3CC3)c2)C[C@@]2(C1)C[C@]([H])(c1nc3cc(Cl)ccc3s1)C2 (single isomer, unassigned) [Example 55-a, (Sa)-N-[6-(5-chloro-1,3-benzothiazol-2-yl)spiro[3.3]heptan-2-yl]-2-cyclopropylsulfonyl-pyridine-4-carboxamide]
IC50 [1, 6]: 1.56 µM
IC50 [2, 7]: 1.09 µM
CC50 at 144 h [3]: 22.5 µM

CC(C)N(C)c1cc(C(=O)NC2CC3(C2)CC(c2nc4cc(Cl)ccc4s2)C3)ccn1 (stereo not drawn) [Example 49, N-[6-(5-chloro-1,3-benzothiazol-2-yl)spiro[3.3]heptan-2-yl]-2-[isopropyl(methyl)amino]pyridine-4-carboxamide]
IC50 [1, 4]: 3.14 µM
IC50 [2, 5]: 2.38 µM
CC50 at 144 h [3]: > 10 µM

CCS(=O)(=O)c1cc(C(=O)NC2CC3(C2)CC(c2nc4cc(Cl)ccc4s2)C3)ccn1 (stereo not drawn) [Example 9, N-[6-(5-chloro-1,3-benzothiazol-2-yl)spiro[3.3]heptan-2-yl]-2-ethylsulfonyl-pyridine-4-carboxamide]
IC50 [1, 4]: 1.35 µM
IC50 [2, 5]: 1.21 µM
CC50 at 144 h [3]: 13.4 µM

CCN1CC(C(=O)NC2CC3(C2)CC(c2nc4cc(Cl)ccc4s2)C3)CC1=O (stereo not drawn) [Example 31, N-[6-(5-chloro-1,3-benzothiazol-2-yl)spiro[3.3]heptan-2-yl]-1-ethyl-5-oxo-pyrrolidine-3-carboxamide]
IC50 [1, 4]: 9.58 µM
IC50 [2, 5]: 8.29 µM
CC50 at 144 h [3]: > 10 µM

O=C(NC1CC2(C1)CC(c1nc3cc(Cl)ccc3s1)C2)c1ccc(S(=O)(=O)C2CC2)o1 (stereo not drawn) [Example 13, N-[6-(5-chloro-1,3-benzothiazol-2-yl)spiro[3.3]heptan-2-yl]-5-cyclopropylsulfonyl-furan-2-carboxamide]
IC50 [1, 4]: 0.48 µM
IC50 [2, 5]: 0.36 µM
CC50 at 144 h [3]: 94.9 µM

CN(C)c1cc(C(=O)NC2CC3(C2)CC(c2nc4cc(Cl)ccc4s2)C3)ccn1 (stereo not drawn) [Example 46, N-[6-(5-chloro-1,3-benzothiazol-2-yl)spiro[3.3]heptan-2-yl]-2-(dimethylamino)pyridine-4-carboxamide]
IC50 [1, 4]: 4.2 µM
IC50 [2, 5]: 3.35 µM
CC50 at 144 h [3]: > 10 µM

CCN(C)c1cc(C(=O)NC2CC3(C2)CC(c2nc4cc(Cl)ccc4s2)C3)ccn1 (stereo not drawn) [Example 47, N-[6-(5-chloro-1,3-benzothiazol-2-yl)spiro[3.3]heptan-2-yl]-2-[ethyl(methyl)amino]pyridine-4-carboxamide]
IC50 [1, 4]: 5.85 µM
IC50 [2, 5]: 4.8 µM
CC50 at 144 h [3]: > 10 µM

O=C(NC1CC2(C1)CC(c1nc3ccc(Cl)cc3s1)C2)c1ccnc(S(=O)(=O)C2CC2)c1 (stereo not drawn) [Example 37, N-[6-(6-chloro-1,3-benzothiazol-2-yl)spiro[3.3]heptan-2-yl]-2-cyclopropylsulfonyl-pyridine-4-carboxamide]
IC50 [1, 4]: 0.23 µM
IC50 [2, 5]: 0.2 µM
CC50 at 144 h [3]: 10.1 µM

O=C(NC1CC2(C1)CC(c1nc3cc(Cl)ccc3s1)C2)c1ccc(S(=O)(=O)N2CC(F)(F)C2)o1 (stereo not drawn) [Example 21, N-[6-(5-chloro-1,3-benzothiazol-2-yl)spiro[3.3]heptan-2-yl]-5-(3,3-difluoroazetidin-1-yl)sulfonyl-furan-2-carboxamide]
IC50 [1, 4]: 1.49 µM
IC50 [2, 5]: 1.14 µM
CC50 at 144 h [3]: > 10 µM

CCN(CC)c1cc(C(=O)NC2CC3(C2)CC(c2nc4cc(Cl)ccc4s2)C3)ccn1 (stereo not drawn) [Example 48, N-[6-(5-chloro-1,3-benzothiazol-2-yl)spiro[3.3]heptan-2-yl]-2-(diethylamino)pyridine-4-carboxamide]
IC50 [1, 4]: 5.92 µM
IC50 [2, 5]: 4.96 µM
CC50 at 144 h [3]: > 10 µM

O=C(NC1CC2(C1)CC(c1nc3ccc(Cl)cc3s1)C2)C1CCS(=O)(=O)C1 (stereo not drawn) [Example 27, N-[6-(6-chloro-1,3-benzothiazol-2-yl)spiro[3.3]heptan-2-yl]-1,1-dioxo-thiolane-3-carboxamide]
IC50 [1, 4]: 1.15 µM
IC50 [2, 5]: 0.56 µM
CC50 at 144 h [3]: > 100 µM

CNc1cc(C(=O)NC2CC3(C2)CC(c2nc4cc(Cl)ccc4s2)C3)ccn1 (stereo not drawn) [Example 44, N-[6-(5-chloro-1,3-benzothiazol-2-yl)spiro[3.3]heptan-2-yl]-2-(methylamino)pyridine-4-carboxamide]
IC50 [1, 4]: 3.24 µM
IC50 [2, 5]: 3.18 µM
CC50 at 144 h [3]: > 10 µM

CP(C)(=O)c1cccc(C(=O)NC2CC3(C2)CC(c2nc4cc(Cl)ccc4s2)C3)c1 (stereo not drawn) [Example 3, N-[6-(5-chloro-1,3-benzothiazol-2-yl)spiro[3.3]heptan-2-yl]-3-dimethylphosphoryl-benzamide]
IC50 [1, 4]: 6.37 µM
IC50 [2, 5]: 4.39 µM
CC50 at 144 h [3]: > 10 µM

O=C(NC1CC2(C1)CC(c1nc3cc(Cl)ccc3s1)C2)c1ccc(S(=O)(=O)NC2CC(C(F)(F)F)C2)o1 (stereo not drawn) [Example 24, N-[6-(5-chloro-1,3-benzothiazol-2-yl)spiro[3.3]heptan-2-yl]-5-[[3-(trifluoromethyl)cyclobutyl]sulfamoyl]furan-2-carboxamide]
IC50 [1, 4]: 1.4 µM
IC50 [2, 5]: 1.04 µM
CC50 at 144 h [3]: 19.7 µM

Cc1cc(C(=O)NC2CC3(C2)CC(c2nc4cc(Cl)ccc4s2)C3)ccn1 (stereo not drawn) [Example 6, N-[6-(5-chloro-1,3-benzothiazol-2-yl)spiro[3.3]heptan-2-yl]-2-methyl-pyridine-4-carboxamide]
IC50 [1, 4]: 3.63 µM
IC50 [2, 5]: 3.3 µM
CC50 at 144 h [3]: > 10 µM

O=C(CN1CCCCS1(=O)=O)NC1CC2(C1)CC(c1nc3cc(Cl)ccc3s1)C2 (stereo not drawn) [Example 35, N-[6-(5-chloro-1,3-benzothiazol-2-yl)spiro[3.3]heptan-2-yl]-2-(1,1-dioxothiazinan-2-yl)acetamide]
IC50 [1, 4]: 3.18 µM
IC50 [2, 5]: 2.98 µM
CC50 at 144 h [3]: > 10 µM

[H][C@]1(NC(=O)c2ccnc(C(N)=O)c2)C[C@@]2(C1)C[C@]([H])(c1nc3cc(Cl)ccc3s1)C2 (single isomer, unassigned) [Example 53-a, (Sa)-N4-[6-(5-chloro-1,3-benzothiazol-2-yl)spiro[3.3]heptan-2-yl]pyridine-2,4-dicarboxamide]
IC50 [1, 6]: 0.29 µM
IC50 [2, 7]: 0.24 µM
CC50 at 144 h [3]: 36.8 µM

O=C1CCC(CC(=O)NC2CC3(C2)CC(c2nc4cc(Cl)ccc4s2)C3)N1 (stereo not drawn) [Example 33, N-[6-(5-chloro-1,3-benzothiazol-2-yl)spiro[3.3]heptan-2-yl]-2-(5-oxopyrrolidin-2-yl)acetamide]
IC50 [1, 4]: 4.08 µM
IC50 [2, 5]: 4.12 µM
CC50 at 144 h [3]: > 10 µM

CC(C)Oc1cc(C(=O)NC2CC3(C2)CC(c2nc4cc(Cl)ccc4s2)C3)ccn1 (stereo not drawn) [Example 43, N-[6-(5-chloro-1,3-benzothiazol-2-yl)spiro[3.3]heptan-2-yl]-2-isopropoxy-pyridine-4-carboxamide]
IC50 [1, 4]: 3.23 µM
IC50 [2, 5]: 2.86 µM
CC50 at 144 h [3]: > 10 µM
